From patent publication US20240108611A1, “COMPOSITION FOR PREVENTING OR TREATING METABOLIC DISEASES, CONTAINING TORSEMIDE AND CROMOLYN” (ONCOCROSS CO., LTD., priority 2021, published 2024)

Columns and labels:
NASH animal model = experiment: Triglycerides in liver tissue by Oil Red O staining in NASH animal model; settings: HFD mice after 13 weeks of diet and drug administration
[1] = test system: nonalcoholic steatohepatitis (NASH) animal model; experiment: Body weight change in nonalcoholic steatohepatitis (NASH) animal model, high fat diet; type: in vivo, ICR mice; settings: high-fat diet mice; 10 mg/kg each drug i.p. three times a week for 6 weeks

O=C(O)c1cc(=O)c2c(OCC(O)COc3cccc4oc(C(=O)O)cc(=O)c34)cccc2o1 [cromolyn]
triglycerides in liver tissue (Oil Red O staining) versus HFD PBS group (NASH animal model): relatively decreased
change in body weight compared to high-fat diet control group (HFD PBS) [1]: no significant change
